Source: PubChem BioAssay AID1259407 (Chemical Carcinogenesis Research Information System (CCRIS), 2018)
The source made the active and inactive calls. The rule behind the calls is not given here.

Tested on: CCRIS mutagenicity, Ames/micronucleus/aberration tests
Assay: CCRIS mutagenicity studies
[1] = Test System: AMES SALMONELLA TYPHIMURIUM, Strain/Indicator: TA100, Metabolic Activation: NONE, Method: STANDARD PLATE

Question: `Cc1c2cc(CO)ccc2nc2c3c(ccc12)[C@H](O)[C@@H](O)C=C3` was tested. Which mutagenic call (Test System: AMES SALMONELLA TYPHIMURIUM, Strain/Indicator: TA100, Metabolic Activation: RAT, LIVER, S-9, AROCLOR 1254, Method: STANDARD PLATE) did it give?
Answer: active; positive

Question: For `COc1cc(-c2ccc(N=C=O)c(OC)c2)ccc1N=C=O`, which mutagenic call (Test System: AMES SALMONELLA TYPHIMURIUM, Strain/Indicator: TA98, Metabolic Activation: HAMSTER, LIVER, S-9, AROCLOR 1254, Method: STANDARD PLATE) is on record?
Answer: active; positive

Question: And the mutagenic call (Test System: AMES SALMONELLA TYPHIMURIUM, Strain/Indicator: TA98, Metabolic Activation: HAMSTER, LIVER, S-9, Method: STANDARD PLATE)?
Answer: active; positive

Question: And the mutagenic call (Test System: AMES SALMONELLA TYPHIMURIUM, Strain/Indicator: TA98, Metabolic Activation: MOUSE, LIVER, S-9, AROCLOR 1254, Method: STANDARD PLATE)?
Answer: active; positive

Question: And the mutagenic call (Test System: AMES SALMONELLA TYPHIMURIUM, Strain/Indicator: TA98, Metabolic Activation: MOUSE, LIVER, S-9, Method: STANDARD PLATE)?
Answer: active; positive

Question: What about the mutagenic call (Test System: AMES SALMONELLA TYPHIMURIUM, Strain/Indicator: TA98, Metabolic Activation: RAT, LIVER, S-9, AROCLOR 1254, Method: STANDARD PLATE) of the same compound?
Answer: active; positive

Question: What about the mutagenic call (Test System: AMES SALMONELLA TYPHIMURIUM, Strain/Indicator: TA98, Metabolic Activation: RAT, LIVER, S-9, Method: STANDARD PLATE) of the same compound?
Answer: active; positive

Question: What about the mutagenic call (Test System: AMES SALMONELLA TYPHIMURIUM, Strain/Indicator: TA100, Metabolic Activation: HAMSTER, LIVER, S-9, AROCLOR 1254, Method: STANDARD PLATE) of the same compound?
Answer: inactive; negative

Question: What about the mutagenic call (Test System: AMES SALMONELLA TYPHIMURIUM, Strain/Indicator: TA100, Metabolic Activation: HAMSTER, LIVER, S-9, Method: STANDARD PLATE) of the same compound?
Answer: inactive; negative

Question: And the mutagenic call (Test System: AMES SALMONELLA TYPHIMURIUM, Strain/Indicator: TA100, Metabolic Activation: MOUSE, LIVER, S-9, AROCLOR 1254, Method: STANDARD PLATE)?
Answer: inactive; negative

Question: What about the mutagenic call (Test System: AMES SALMONELLA TYPHIMURIUM, Strain/Indicator: TA100, Metabolic Activation: MOUSE, LIVER, S-9, Method: STANDARD PLATE) of the same compound?
Answer: inactive; negative

Question: And the mutagenic call [1]?
Answer: inactive; negative

Question: And the mutagenic call (Test System: AMES SALMONELLA TYPHIMURIUM, Strain/Indicator: TA1535, Metabolic Activation: HAMSTER, LIVER, S-9, AROCLOR 1254, Method: STANDARD PLATE)?
Answer: inactive; negative

Question: And the mutagenic call (Test System: AMES SALMONELLA TYPHIMURIUM, Strain/Indicator: TA1535, Metabolic Activation: HAMSTER, LIVER, S-9, Method: STANDARD PLATE)?
Answer: inactive; negative

Question: And the mutagenic call (Test System: AMES SALMONELLA TYPHIMURIUM, Strain/Indicator: TA1535, Metabolic Activation: MOUSE, LIVER, S-9, AROCLOR 1254, Method: STANDARD PLATE)?
Answer: inactive; negative

Question: And the mutagenic call (Test System: AMES SALMONELLA TYPHIMURIUM, Strain/Indicator: TA1535, Metabolic Activation: MOUSE, LIVER, S-9, Method: STANDARD PLATE)?
Answer: inactive; negative

Question: And the mutagenic call (Test System: AMES SALMONELLA TYPHIMURIUM, Strain/Indicator: TA1535, Metabolic Activation: NONE, Method: STANDARD PLATE)?
Answer: inactive; negative

Question: What about the mutagenic call (Test System: AMES SALMONELLA TYPHIMURIUM, Strain/Indicator: TA1535, Metabolic Activation: RAT, LIVER, S-9, AROCLOR 1254, Method: STANDARD PLATE) of the same compound?
Answer: inactive; negative

Question: And the mutagenic call (Test System: AMES SALMONELLA TYPHIMURIUM, Strain/Indicator: TA1535, Metabolic Activation: RAT, LIVER, S-9, Method: STANDARD PLATE)?
Answer: inactive; negative

Question: What about the mutagenic call (Test System: AMES SALMONELLA TYPHIMURIUM, Strain/Indicator: TA1537, Metabolic Activation: HAMSTER, LIVER, S-9, AROCLOR 1254, Method: STANDARD PLATE) of the same compound?
Answer: inactive; negative

Question: What about the mutagenic call (Test System: AMES SALMONELLA TYPHIMURIUM, Strain/Indicator: TA1537, Metabolic Activation: HAMSTER, LIVER, S-9, Method: STANDARD PLATE) of the same compound?
Answer: inactive; negative

Question: What about the mutagenic call (Test System: AMES SALMONELLA TYPHIMURIUM, Strain/Indicator: TA1537, Metabolic Activation: MOUSE, LIVER, S-9, AROCLOR 1254, Method: STANDARD PLATE) of the same compound?
Answer: inactive; negative

Question: What about the mutagenic call (Test System: AMES SALMONELLA TYPHIMURIUM, Strain/Indicator: TA1537, Metabolic Activation: MOUSE, LIVER, S-9, Method: STANDARD PLATE) of the same compound?
Answer: inactive; negative

Question: What about the mutagenic call (Test System: AMES SALMONELLA TYPHIMURIUM, Strain/Indicator: TA1537, Metabolic Activation: NONE, Method: STANDARD PLATE) of the same compound?
Answer: inactive; negative

Question: And the mutagenic call (Test System: AMES SALMONELLA TYPHIMURIUM, Strain/Indicator: TA1537, Metabolic Activation: RAT, LIVER, S-9, AROCLOR 1254, Method: STANDARD PLATE)?
Answer: inactive; negative

Question: And the mutagenic call (Test System: AMES SALMONELLA TYPHIMURIUM, Strain/Indicator: TA1537, Metabolic Activation: RAT, LIVER, S-9, Method: STANDARD PLATE)?
Answer: inactive; negative

Question: What about the mutagenic call (Test System: AMES SALMONELLA TYPHIMURIUM, Strain/Indicator: TA1538, Metabolic Activation: HAMSTER, LIVER, S-9, AROCLOR 1254, Method: STANDARD PLATE) of the same compound?
Answer: active; positive

Question: And the mutagenic call (Test System: AMES SALMONELLA TYPHIMURIUM, Strain/Indicator: TA1538, Metabolic Activation: HAMSTER, LIVER, S-9, Method: STANDARD PLATE)?
Answer: active; positive

Question: What about the mutagenic call (Test System: AMES SALMONELLA TYPHIMURIUM, Strain/Indicator: TA1538, Metabolic Activation: MOUSE, LIVER, S-9, AROCLOR 1254, Method: STANDARD PLATE) of the same compound?
Answer: active; positive

Question: What about the mutagenic call (Test System: AMES SALMONELLA TYPHIMURIUM, Strain/Indicator: TA1538, Metabolic Activation: MOUSE, LIVER, S-9, Method: STANDARD PLATE) of the same compound?
Answer: active; positive

Question: What about the mutagenic call (Test System: AMES SALMONELLA TYPHIMURIUM, Strain/Indicator: TA1538, Metabolic Activation: RAT, LIVER, S-9, AROCLOR 1254, Method: STANDARD PLATE) of the same compound?
Answer: active; positive

Question: What about the mutagenic call (Test System: AMES SALMONELLA TYPHIMURIUM, Strain/Indicator: TA1538, Metabolic Activation: RAT, LIVER, S-9, Method: STANDARD PLATE) of the same compound?
Answer: active; positive

Question: And the mutagenic call (Test System: E. COLI, Strain/Indicator: WP2 UVRA, Metabolic Activation: HAMSTER, LIVER, S-9, AROCLOR 1254, Method: STANDARD PLATE)?
Answer: inactive; negative

Question: And the mutagenic call (Test System: E. COLI, Strain/Indicator: WP2 UVRA, Metabolic Activation: HAMSTER, LIVER, S-9, Method: STANDARD PLATE)?
Answer: inactive; negative

Question: What about the mutagenic call (Test System: E. COLI, Strain/Indicator: WP2 UVRA, Metabolic Activation: MOUSE, LIVER, S-9, AROCLOR 1254, Method: STANDARD PLATE) of the same compound?
Answer: inactive; negative

Question: What about the mutagenic call (Test System: E. COLI, Strain/Indicator: WP2 UVRA, Metabolic Activation: MOUSE, LIVER, S-9, Method: STANDARD PLATE) of the same compound?
Answer: inactive; negative

Question: What about the mutagenic call (Test System: E. COLI, Strain/Indicator: WP2 UVRA, Metabolic Activation: NONE, Method: STANDARD PLATE) of the same compound?
Answer: inactive; negative

Question: What about the mutagenic call (Test System: E. COLI, Strain/Indicator: WP2 UVRA, Metabolic Activation: RAT, LIVER, S-9, AROCLOR 1254, Method: STANDARD PLATE) of the same compound?
Answer: inactive; negative

Question: And the mutagenic call (Test System: E. COLI, Strain/Indicator: WP2 UVRA, Metabolic Activation: RAT, LIVER, S-9, Method: STANDARD PLATE)?
Answer: inactive; negative

Question: How did the mutagenic call (Test System: AMES SALMONELLA TYPHIMURIUM, Strain/Indicator: TA98, Metabolic Activation: NONE, Method: STANDARD PLATE) turn out when `O=C(O)c1occ(-c2ccccc2)c1-c1ccccc1` was run?
Answer: inactive; negative

Question: What about the mutagenic call [1] of the same compound?
Answer: inactive; negative

Question: For `COc1ccc2c(c1)C(=O)c1nccc3cc(OC)c(OC)c-2c13`, which mutagenic call (Test System: AMES SALMONELLA TYPHIMURIUM, Strain/Indicator: TA100, Metabolic Activation: RAT, LIVER, S-9, PHENOBARBITAL AND BETA-NAPHTHOFLAVONE, Method: PREINCUBATION) is on record?
Answer: active; positive
